23 compounds from US8378117B2 (priority 2005, dated 2013) can be followed below.

Read-outs that look alike come from different tables or passages of the source.

Test [1] has as its target T1, CB2 receptor (Homo sapiens, UniProt P34972).
T1 construct: expressed in transfected cells
Description: Binding assay for CB2 agonists or inverse agonists (SK-N-MC membranes, [3H]-CP-55,940). Put shortly: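 Membranes from SK-N-MC cells stably expressing human CB2 were incubated with radioligand and test compounds for 90 min at 30 °C in Tris-HCl buffer, pH 7.5, with MgCl2, EDTA and fatty-acid-free BSA. Filter-bound radioactivity was counted; IC50 was derived by linear regression of percent inhibition.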

Test [2] has as its target T2, CB1 receptor (Homo sapiens, UniProt P21554).
T2 construct: expressed in transfected cells
Description: Binding assay for CB1 agonists or inverse agonists (SK-N-MC membranes, [3H]-CP-55,940). The following applies: read-out: CB1 receptor binding percent inhibition, test concentration 0.2 μM (footnote 2). Summed up: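 Membranes from SK-N-MC cells stably expressing human CB1 incubated with compound and [3H]-CP-55,940 ([…]) for 90 min at 30° C in Tris-HCl pH 7.5, MgCl2, EDTA, fatty-acid-free BSA. Non-specific binding defined with 10 uM WIN 55,212; filtration, scintillation count; IC50 by linear regression.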

Setting [3] is: test concentration 0.2 μM (footnote 2), read-out: CB2 receptor binding percent inhibition.

T2 sequence (P21554 whole entry): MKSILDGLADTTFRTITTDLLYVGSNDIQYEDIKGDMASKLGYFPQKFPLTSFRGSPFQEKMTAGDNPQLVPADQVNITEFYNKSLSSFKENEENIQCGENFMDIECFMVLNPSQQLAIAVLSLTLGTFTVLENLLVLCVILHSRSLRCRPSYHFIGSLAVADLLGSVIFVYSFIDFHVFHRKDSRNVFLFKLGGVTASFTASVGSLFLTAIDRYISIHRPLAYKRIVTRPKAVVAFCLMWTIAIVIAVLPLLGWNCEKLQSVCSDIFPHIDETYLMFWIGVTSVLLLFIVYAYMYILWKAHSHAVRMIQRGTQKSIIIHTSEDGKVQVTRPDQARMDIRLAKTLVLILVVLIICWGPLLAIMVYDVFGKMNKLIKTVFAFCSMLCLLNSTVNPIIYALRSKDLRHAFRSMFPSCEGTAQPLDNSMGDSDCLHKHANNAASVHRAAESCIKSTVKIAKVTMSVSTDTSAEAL
T1 sequence (P34972 whole entry): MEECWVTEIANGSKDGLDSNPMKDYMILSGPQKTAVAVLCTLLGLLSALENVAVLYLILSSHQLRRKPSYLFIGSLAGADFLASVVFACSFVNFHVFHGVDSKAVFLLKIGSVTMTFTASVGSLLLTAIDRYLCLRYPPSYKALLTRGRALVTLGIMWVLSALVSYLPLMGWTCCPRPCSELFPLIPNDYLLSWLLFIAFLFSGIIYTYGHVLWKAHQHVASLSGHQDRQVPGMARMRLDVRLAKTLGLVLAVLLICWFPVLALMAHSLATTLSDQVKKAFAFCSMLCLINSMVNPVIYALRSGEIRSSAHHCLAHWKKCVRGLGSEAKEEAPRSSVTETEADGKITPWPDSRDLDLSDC

Turning to `CC(C)[C@@H](CO)NC(=O)c1nn(-c2ccc(Cl)cc2Cl)c2c1CCCC[C@@H]2Cc1cccc(Cl)c1` [Cpd 158, (8R)-8-(3-chloro-benzyl)-1-(2,4-dichloro-phenyl)-1,4,5,6,7,8-hexahydro-cycloheptapyrazole-3-carboxylic acid [(1S)-1-hydroxymethyl-2-methyl-propyl]-amide], the inhibition at 0.2 µM in test [1] (setting [3]) was 0%; in test [2], 14%.

`CC(C)[C@@H](CO)NC(=O)c1nn(-c2ccc(Cl)cc2Cl)c2c1CCCC[C@H]2Cc1cccc(Cl)c1` [Cpd 159, (8S)-8-(3-chloro-benzyl)-1-(2,4-dichloro-phenyl)-1,4,5,6,7,8-hexahydro-cycloheptapyrazole-3-carboxylic acid [(1S)-1-hydroxymethyl-2-methyl-propyl]-amide]: the inhibition at 0.2 µM was 3% in test [1] (setting [3]) and 40% in test [2].

In the case of `C[C@H](NS(=O)(=O)/C=C/c1n[nH]c2c1CCCCC2Cc1cccc(Cl)c1)c1ccccc1` (stereo partly drawn) [Cpd 160, (2E)-2-[8-(3-chloro-benzyl)-1,4,5,6,7,8-hexahydro-cycloheptapyrazol-3-yl]-ethenesulfonic acid [(1S)-1-phenyl-ethyl]-amide], the inhibition at 0.2 µM came out at 75% in test [1] (setting [3]) and 2% in test [2].

Take `O=C(N[C@H](CO)c1ccccc1)c1nn(-c2ccc(Cl)cc2Cl)c2c1CCCC[C@@H]2Cc1cccc(Cl)c1` [Cpd 161, (8R)-8-(3-chloro-benzyl)-1-(2,4-dichloro-phenyl)-1,4,5,6,7,8-hexahydro-cycloheptapyrazole-3-carboxylic acid [(1S)-2-hydroxy-1-phenyl-ethyl]-amide]: the inhibition at 0.2 µM in test [1] (setting [3]) is 3%; in test [2], 35%.

On to `O=C(N[C@H](CO)c1ccccc1)c1nn(-c2ccc(Cl)cc2Cl)c2c1CCCC[C@H]2Cc1cccc(Cl)c1` [Cpd 162, (8S)-8-(3-chloro-benzyl)-1-(2,4-dichloro-phenyl)-1,4,5,6,7,8-hexahydro-cycloheptapyrazole-3-carboxylic acid [(1S)-2-hydroxy-1-phenyl-ethyl]-amide], for which the inhibition at 0.2 µM in test [1] (setting [3]) came to 5%; in test [2], 16%.

Consider `O=C(N[C@@H](CO)Cc1ccccc1)c1nn(-c2ccc(Cl)cc2Cl)c2c1CCCCC2Cc1cccc(Cl)c1` (stereo partly drawn) [Cpd 163, 8-(3-chloro-benzyl)-1-(2,4-dichloro-phenyl)-1,4,5,6,7,8-hexahydro-cycloheptapyrazole-3-carboxylic acid [(1R)-1-benzyl-2-hydroxy-ethyl]-amide], for which the inhibition at 0.2 µM is 7% in test [1] (setting [3]) and 44% in test [2].

For `O=C(N[C@H](CO)Cc1ccccc1)c1n[nH]c2c1CCCCC2Cc1cccc(Cl)c1` (stereo partly drawn) [Cpd 166, 8-(3-chloro-benzyl)-1,4,5,6,7,8-hexahydro-cycloheptapyrazole-3-carboxylic acid [(1S)-1-benzyl-2-hydroxy-ethyl]-amide], the inhibition at 0.2 µM in test [1] (read-out: CB2 receptor binding percent inhibition, test concentration 0.2 μM (footnote 2)) worked out at 75%; in test [2], 24%.

For `O=C(N[C@H](CO)c1ccccc1)c1nn(-c2ccc(F)cc2F)c2c1CCCCC2Cc1cccc(F)c1` (stereo partly drawn) [Cpd 168, 1-(2,4-difluoro-phenyl)-8-(3-fluoro-benzyl)-1,4,5,6,7,8-hexahydro-cycloheptapyrazole-3-carboxylic acid [(1S)-2-hydroxy-1-phenyl-ethyl]-amide], the inhibition at 0.2 µM in test [1] (setting [3]) is 11%; in test [2], 18%.

`O=C(N[C@H](CCl)c1ccccc1)c1nn(-c2ccc(F)cc2F)c2c1CCCCC2Cc1cccc(F)c1` (stereo partly drawn) [Cpd 169, 1-(2,4-difluoro-phenyl)-8-(3-fluoro-benzyl)-1,4,5,6,7,8-hexahydro-cycloheptapyrazole-3-carboxylic acid [(1S)-2-chloro-1-phenyl-ethyl]-amide]: the results for the inhibition at 0.2 µM in test [1] (setting [3]) and in test [2] were 14% and 24%, respectively.

As for `C[C@@H](NC(=O)c1nn(-c2ccncc2)c2c1CCCC/C2=C\c1ccc(Cl)cc1)c1ccccc1` [Cpd 170, (8E)-8-(4-chloro-benzylidene)-1-pyridin-4-yl-1,4,5,6,7,8-hexahydro-cycloheptapyrazole-3-carboxylic acid [(1R)-1-phenyl-ethyl]-amide], the inhibition at 0.2 µM worked out at 27% in test [1] (setting [3]) and 29% in test [2].

In the case of `C[C@H](NC(=O)c1nn(-c2ccncc2)c2c1CCCC/C2=C\c1ccc(Cl)cc1)c1ccccc1` [Cpd 171, (8E)-8-(4-chloro-benzylidene)-1-pyridin-4-yl-1,4,5,6,7,8-hexahydro-cycloheptapyrazole-3-carboxylic acid [(1S)-1-phenyl-ethyl]-amide], the inhibition at 0.2 µM in test [1] (setting [3]) stood at 38%; in test [2], 2%.

Turning to `C[C@@H](NC(=O)c1nn(-c2ccc(F)cc2F)c2c1CCCCC2Cc1cccc(F)c1)c1ccccc1` (stereo partly drawn) [Cpd 173, 1-(2,4-difluoro-phenyl)-8-(3-fluoro-benzyl)-1,4,5,6,7,8-hexahydro-cycloheptapyrazole-3-carboxylic acid [(1R)-1-phenyl-ethyl]-amide], the inhibition at 0.2 µM is 19% in test [1] (setting [3]) and 32% in test [2].

In the case of `C[C@@H](NC(=O)c1nn(C2CCCCC2)c2c1CCCCC2Cc1cccc(F)c1)c1ccccc1` (stereo partly drawn) [Cpd 174, 1-cyclohexyl-8-(3-fluoro-benzyl)-1,4,5,6,7,8-hexahydro-cycloheptapyrazole-3-carboxylic acid [(1R)-1-phenyl-ethyl]-amide], the inhibition at 0.2 µM in test [1] (setting [3]) is 33%; in test [2] it was 0%.

On to `C[C@@H](NC(=O)c1nn(-c2nccc(C(F)(F)F)n2)c2c1CCCCC2Cc1cccc(Cl)c1)c1ccccc1` (stereo partly drawn) [Cpd 175, 8-(3-chloro-benzyl)-1-(4-trifluoromethyl-pyrimidin-2-yl)-1,4,5,6,7,8-hexahydro-cycloheptapyrazole-3-carboxylic acid [(1R)-1-phenyl-ethyl]-amide], for which the inhibition at 0.2 µM was determined as 36% in test [1] (setting [3]) and 30% in test [2].

As to `O=C(N[C@@H](CO)c1ccccc1)c1nn(-c2nccc(C(F)(F)F)n2)c2c1CCCCC2Cc1cccc(Cl)c1` (stereo partly drawn) [Cpd 176, 8-(3-chloro-benzyl)-1-(4-trifluoromethyl-pyrimidin-2-yl)-1,4,5,6,7,8-hexahydro-cycloheptapyrazole-3-carboxylic acid [(1R)-2-hydroxy-1-phenyl-ethyl]-amide], the inhibition at 0.2 µM in test [1] (setting [3]) was 43%; in test [2], 4%.

In the case of `C[C@@H](NC(=O)c1nn(-c2ccnc3cc(Cl)ccc23)c2c1CCCCC2Cc1cccc(Cl)c1)c1ccccc1` (stereo partly drawn) [Cpd 177, 8-(3-chloro-benzyl)-1-(7-chloro-quinolin-4-yl)-1,4,5,6,7,8-hexahydro-cycloheptapyrazole-3-carboxylic acid [(1R)-1-phenyl-ethyl]-amide], the inhibition at 0.2 µM in test [1] (setting [3]) worked out at 27%; in test [2], 4%.

Consider `O=C(N[C@@H](CCl)c1ccccc1)c1nn(-c2nccc(C(F)(F)F)n2)c2c1CCCCC2Cc1cccc(Cl)c1` (stereo partly drawn) [Cpd 178, 8-(3-chloro-benzyl)-1-(4-trifluoromethyl-pyrimidin-2-yl)-1,4,5,6,7,8-hexahydro-cycloheptapyrazole-3-carboxylic acid [(1R)-2-chloro-1-phenyl-ethyl]-amide], for which the inhibition at 0.2 µM in test [1] (setting [3]) and in test [2] was 29% each time.

For the compound `O=C(N[C@H](CCl)c1ccccc1)c1nn(-c2nccc(C(F)(F)F)n2)c2c1CCCCC2Cc1cccc(Cl)c1` (stereo partly drawn) [Cpd 179, 8-(3-chloro-benzyl)-1-(4-trifluoromethyl-pyrimidin-2-yl)-1,4,5,6,7,8-hexahydro-cycloheptapyrazole-3-carboxylic acid [(1S)-2-chloro-1-phenyl-ethyl]-amide], the inhibition at 0.2 µM in test [1] (setting [3]) is 29%; in test [2], 0%.

As to `C[C@@H](NC(=O)c1nn(-c2ccncc2)c2c1CCCC/C2=C\c1ccc(Cl)cc1)C1CCCCC1` [Cpd 180, (8E)-8-(4-chloro-benzylidene)-1-pyridin-4-yl-1,4,5,6,7,8-hexahydro-cycloheptapyrazole-3-carboxylic acid [(1R)-1-cyclohexyl-ethyl]-amide], the values for the inhibition at 0.2 µM in test [1] (setting [3]) and in test [2] were 86% and 40%, respectively.

With `C[C@H](NC(=O)c1nn(-c2ccncc2)c2c1CCCC/C2=C\c1ccc(Cl)cc1)C1CCCCC1` [Cpd 181, (8E)-8-(4-chloro-benzylidene)-1-pyridin-4-yl-1,4,5,6,7,8-hexahydro-cycloheptapyrazole-3-carboxylic acid [(1S)-1-cyclohexyl-ethyl]-amide], the inhibition at 0.2 µM amounted to 57% in test [1] (setting [3]) and 32% in test [2].

Regarding `O=C(NN1CCCCC1)c1nn(-c2ccncc2)c2c1CCCC/C2=C\c1ccc(Cl)cc1` [Cpd 182, (8E)-8-(4-chloro-benzylidene)-1-pyridin-4-yl-1,4,5,6,7,8-hexahydro-cycloheptapyrazole-3-carboxylic acid piperidin-1-ylamide], the inhibition at 0.2 µM in test [1] (setting [3]) was 31%; in test [2], 21%.

On to `O=C(NN1CCOCC1)c1nn(-c2ccncc2)c2c1CCCC/C2=C\c1ccc(Cl)cc1` [Cpd 183, (8E)-8-(4-chloro-benzylidene)-1-pyridin-4-yl-1,4,5,6,7,8-hexahydro-cycloheptapyrazole-3-carboxylic acid morpholin-4-ylamide], for which the inhibition at 0.2 µM in test [1] (setting [3]) came out at 14%; in test [2], 0%.

Take `O=C(N[C@@H](CO)Cc1ccccc1)c1nn(-c2nccc(C(F)(F)F)n2)c2c1CCCCC2Cc1cccc(Cl)c1` (stereo partly drawn) [Cpd 186, 8-(3-chloro-benzyl)-1-(4-trifluoromethyl-pyrimidin-2-yl)-1,4,5,6,7,8-hexahydro-cycloheptapyrazole-3-carboxylic acid [(1R)-1-benzyl-2-hydroxy-ethyl]-amide]: the values for the inhibition at 0.2 µM in test [1] (setting [3]) and in test [2] were 58% and 12%, respectively.
